From ChEMBL document CHEMBL6115007, “Synthesis and in vitro and in vivo evaluation of novel bivalent quinolines as antitumor agents via targeting autophagy in cervical cancer” (Eur J Med Chem, 2025)
Activity calls are given as the source filed them. The calls are words filed in the database; no cut-off is given here.

What was measured:
HCT-116 = experiment: Antiproliferative activity against human HCT-116 cells assessed as reduction in cell optical density incubated for 48 hrs by MTT assay; type: functional, cell-based; conditions: HCT-116, 48 h
HeLa [1] = experiment: Antiproliferative activity against human HeLa cells assessed as reduction in cell optical density incubated for 48 hrs by MTT assay; type: functional, cell-based
HeLa [2] = experiment: Antiproliferative activity against human HeLa cells assessed as inhibition of cell growth at 0.4 to 1.6 uM by CCK8 assay; type: functional, cell-based; conditions: dose 0.4-1.6 µM, time 6.0 day
SiHa = experiment: Antiproliferative activity against human SiHa cells assessed as inhibition of cell growth at 0.4 to 1.6 uM by CCK8 assay; type: functional, cell-based; conditions: dose 0.4-1.6 µM, time 6.0 day
Ca-Ski [3] = experiment: Inhibition of cell migration in human Ca Ski cells at 0.5 to 1.0 uM measured after 48 hrs by cell scratch assay; type: functional, cell-based; conditions: dose 0.5-1 µM
Ca-Ski [4] = experiment: Inhibition of cell migration in human Ca Ski cells at 0.5 to 1 uM measured after 24 hrs by transwell migration assay; type: functional, cell-based; conditions: dose 0.5-1 µM
HeLa [5] = experiment: Induction of morphological changes in human HeLa cells assessed as increase in inflated cell appearance at 0.6 to 2.4 uM by microphotographic analysis; type: functional, cell-based; conditions: dose 0.6-2.4 µM
Ca-Ski [6] = experiment: Induction of morphological changes in human Ca Ski cells assessed as increase in inflated cell appearance at 0.5 to 2 uM by microphotographic analysis; type: functional, cell-based; conditions: dose 0.5-2 µM
Ca-Ski [7] = experiment: Induction of morphological changes in human Ca Ski cells assessed as increase in appearance of round cells at 0.5 to 2 uM by microphotographic analysis; type: functional, cell-based; conditions: dose 0.5-2 µM
Ca-Ski [8] = experiment: Induction of morphological changes in human Ca Ski cells assessed as decrease in cell adherence to culture dish at 0.5 to 2 uM by microphotographic analysis; type: functional, cell-based; conditions: dose 0.5-2 µM
C-33-A = experiment: Induction of morphological changes in human C-33-A cells assessed as increase in inflated cell appearance at 0.3 to 1.2 uM by microphotographic analysis; type: functional, cell-based; conditions: dose 0.3-1.2 µM
HeLa [9] = experiment: Induction of apoptosis in human HeLa cells assessed as early apoptotic cells at 1.2 uM incubated for 24 hrs by Annexin V-FITC/PI staining based flow cytometric analysis (reference value: 0.97 %); type: functional
HeLa [10] = experiment: Induction of apoptosis in human HeLa cells assessed as late apoptotic cells at 1.2 uM incubated for 24 hrs by Annexin V-FITC/PI staining based flow cytometric analysis (reference value: 0.94 %); type: functional
HeLa [11] = experiment: Induction of apoptosis in human HeLa cells assessed as necrotic cells at 1.2 uM incubated for 24 hrs by Annexin V-FITC/PI staining based flow cytometric analysis (reference value: 1.88 %); type: functional
Ca-Ski [12] = experiment: Induction of apoptosis in human Ca Ski cells assessed as early apoptotic cells at 1 uM incubated for 24 hrs by Annexin V-FITC/PI staining based flow cytometric analysis (reference value: 4.76 %); type: functional
HeLa [13] = experiment: Effect on cleaved caspase 3 expression level in human HeLa cells at 0.3 to 1.2 uM incubated for 24 hrs by Western blot analysis; type: functional, cell-based; conditions: dose 0.3-1.2 µM
Ca-Ski [14] = experiment: Effect on caspase 3 expression level in human Ca Ski cells at 0.25 to 1 uM incubated for 24 hrs by Western blot analysis; type: functional, cell-based; conditions: dose 0.25-1 µM
HeLa [15] = experiment: Antiproliferative activity against Bax deficient human HeLa cells assessed as inhibition of cell viability incubated for 24 hrs by CCK8 assay; type: functional, cell-based
HeLa [16] = experiment: Effect on caspase 3 expression level in p53 deficient human HeLa cells at 0.6 to 1.2 uM incubated for 24 hrs by Western blot analysis; type: functional, cell-based; conditions: dose 0.6-1.2 µM
Ca-Ski [17] = experiment: Effect on caspase 3 expression level in p53 deficient human Ca Ski cells at 0.5 to 1 uM incubated for 24 hrs by Western blot analysis; type: functional, cell-based; conditions: dose 0.5-1 µM
Ca-Ski [18] = experiment: Effect on cleaved caspase 3 expression level in Bax deficient human Ca Ski cells at 0.5 to 1 uM incubated for 24 hrs by Western blot analysis; type: functional, cell-based; conditions: dose 0.5-1 µM
Ca-Ski [19] = experiment: Induction of ferroptosis in human Ca Ski cells assessed as increase in lipid ROS level by measuring rightward shift in fluorescence intensity at 0.5 uM measured after 24 hrs by C11-BODIPY-581/591 staining based flow cytometric analysis; type: functional, cell-based
HeLa [20] = experiment: Effect on SLC7A11 protein expression level in human HeLa cells at 0.6 uM incubated for 24 hrs by Western blot analysis; type: functional, cell-based
Ca-Ski [21] = experiment: Induction of autophagy in human Ca Ski cells transfected with mRFP-GFP-LC3 plasmid assessed as decrease in GFP fluorescence at 0.3 to 0.6 uM incubated for 24 hrs by DAPI staining based fluorescence confocal microscopic analysis; type: functional, cell-based; conditions: dose 0.3-0.6 µM
Ca-Ski [22] = experiment: Induction of autophagy in human Ca Ski cells transfected with mRFP-GFP-LC3 plasmid assessed as appearance of RFP puncta clusters as aggregates in cytoplasm at 0.3 to 0.6 uM incubated for 24 hrs by DAPI staining based fluorescence confocal microscopic analysis; type: functional, cell-based; conditions: dose 0.3-0.6 µM
Ca-Ski [23] = experiment: Induction of autophagy in human Ca Ski cells assessed as increase in LC3-I conversion to LC3-II at 0.25 to 1 microM incubated for 24 hrs by Western blot analysis; type: functional, cell-based; conditions: dose 0.25-1 µM
HeLa [24] = experiment: Induction of autophagy in human HeLa cells assessed as increase in ATG5 protein level at 0.6 to 1.2 uM incubated for 24 hrs by Western blot analysis; type: functional, cell-based; conditions: dose 0.6-1.2 µM
Ca-Ski [25] = experiment: Antiproliferative activity against ATG5 deficient human Ca Ski cells assessed as inhibition of cell viability incubated for 24 hrs by CCK8 assay; type: functional, cell-based
Ca-Ski [26] = experiment: Induction of autophagy in ATG5 deficient human Ca Ski cells assessed as increase in LC3-II expression at 0.5 to 1 uM incubated for 24 hrs by Western blot analysis; type: functional, cell-based; conditions: dose 0.5-1 µM
HeLa [27] = experiment: Inhibition of colony formation in ATG5 deficient human HeLa cells at 0.15 to 0.6 uM incubated for 24 hrs by crystal violet staining based analysis; type: functional, cell-based; conditions: dose 0.15-0.6 µM
HeLa [28] = experiment: Antitumor activity against human HeLa cells xenografted in female BALB/c mouse assessed as inhibition of tumor progression at 4 to 8 mg/kg administered every four days and measured after 26 days by imaging analysis; type: functional, organism-based; conditions: dose 4-8 mg/kg, time 26.0 day
HeLa [29] = experiment: Antitumor activity against human HeLa cells xenografted in female BALB/c mouse assessed as reduction in tumor weight at 4 mg/kg administered every four days and measured after 26 days relative to control; type: functional; parameters: scale not given: the % may be the effect or the level left; conditions: time 26 day
[30] = Toxicity in female BALB/c mouse xenografted with human HeLa cells assessed as effect on liver at 4 to 8 mg/kg administered every four days and measured after 26 days by H and E staining based analysis; type: organism-based; conditions: in vivo, 624 h, dose 4-8 mg/kg, time 26 day
[31] = Toxicity in female BALB/c mouse xenografted with human HeLa cells assessed as effect on AST level at 4 to 8 mg/kg administered every four days and measured after 26 days; type: organism-based; conditions: in vivo, 624 h, dose 4-8 mg/kg, time 26 day
HeLa [32] = experiment: Induction of autophagy in human HeLa cells transfected with mRFP-GFP-LC3 plasmid assessed as appearance of RFP puncta clusters as aggregates in cytoplasm at 30 uM incubated for 24 hrs by DAPI staining based fluorescence confocal microscopic analysis; type: functional, cell-based

SMILES: COc1cccc(Nc2ccnc3cc(OCCCCCOc4ccc5c(Nc6cccc(OC)c6)ccnc5c4)ccc23)c1
- IC50 (HCT-116): 260 nM
- IC50 (HeLa [1]): 3710 nM
- Activity (HeLa [2]): Time-dependent-effect
- Activity (SiHa): Time-dependent-effect
- inhibition (Ca-Ski [3]): Active
- inhibition (Ca-Ski [4]): Active
- Activity (HeLa [5]): Active
- Activity (Ca-Ski [6]): Active
- Activity (Ca-Ski [7]): Active
- Activity (Ca-Ski [8]): Active
- Activity (C-33-A): Active
- Activity (HeLa [9]): 1.25%
- Activity (HeLa [10]): 4.11%
- Activity (HeLa [11]): 1.47%
- Activity (Ca-Ski [12]): 7.2%
- Activity (HeLa [13]): inactive
- Activity (Ca-Ski [14]): inactive
- IC50 (HeLa [15]): 1320 nM
- Activity (HeLa [16]): inactive
- Activity (Ca-Ski [17]): inactive
- Activity (Ca-Ski [18]): inactive
- Activity (Ca-Ski [19]): inactive
- Activity (HeLa [20]): Moderate_effect
- Activity (Ca-Ski [21]): Active
- Activity (Ca-Ski [22]): Active
- Activity (Ca-Ski [23]): Active
- Activity (HeLa [24]): Active
- IC50 (Ca-Ski [25]): 1580 nM
- Activity (Ca-Ski [26]): inactive
- inhibition (HeLa [27]): Minimal_effect
- Activity (HeLa [28]): Active
- Activity (HeLa [29]): 46.27%
- Activity [30]: Non-toxic
- Activity [31]: Non-toxic
- Activity (HeLa [32]): Active
